Reference: US12534436B2, “Disubstituted adamantyl derivative or pharmaceutically acceptable salt thereof, and pharmaceutical composition for suppressing cancer growth comprising same as active ingredient” (ONECUREGEN CO., LTD., priority 2020, dated 2026)

Experiments:
[1] = system: HepG2 xenografted tumors; assay: HepG2 xenograft mouse model; assay type: in vivo, mice
From the text: In the HepG2 xenograft mouse model, the efficacy of LW1564 (compound 21-3) on tumor proliferation was investigated. All animal experiments were approved and performed according to the guidelines of the Institutional Animal Care and Use Committee of the Korea Research Institute of Bioscience & Biotechnology (Daejeon, Korea). Specific pathogen-free female nude mice (6 weeks old) were inoculated with HepG2 cells (1×10^7) subcutaneously on the right flank. When tumor volumes reached 100 to 150 mm^3, mice were randomly assigned to vehicle and LW1564 (compound 21-3) treatment groups (n=6). LW1564 (compound 21-3) (10 mg/kg) was administered intraperitoneally daily for 2 weeks. The tumor size was measured using a microcalliper, and the tumor volume was calculated using a standard volume: length×width^2×0.5. Significant differences between the two groups were determined by Student's t-test.

[2] = system: Complex IV; assay: Mitochondrial respiration assay, complex IV (ascorbate/TMPD); assay type: cell-based, human; conditions: HepG2 cells (FIG. 4D)
Experimental: Compounds that suppress mitochondrial respiration promote degradation of HIF-1α by increasing cellular oxygen content. Accordingly, it was investigated whether LW1564 (compound 21-3) affected mitochondrial respiration by measuring the oxygen consumption rate (OCR). Oxygen consumption was measured using an Oxytherm Clark-type electrode system (Hansatech, Norfolk, UK) (Chou, T. C. Theoretical basis, experimental design, and computerized simulation of synergism and antagonism in drug combination studies. Pharmacol. Rev. 58, 621-681 (2006)). HepG2 cells (2×10^7) were cultured with 2 μM LW1564 (compound 21-3) for 6 hours, collected, and then OCR was measured at 37° C. for 5 minutes with a thermoregulated controlled circulating system. For […] studies, digitonin-permeabilised HepG2 cells (2×10^7) were read on a detection device containing 2 ml of respiratory buffer (0.25 M sucrose, 2 mM KH2PO4, 5 mM MgCl2, 1 mM EDTA, 1 mM ADP, 20 mM MOPS, pH 7.4). The following substrates, which provide electrons to the components in the ETC, were then added: 5 mM sodium pyruvate, 5 mM sodium malate, 5 mM sodium succinate, 5 mM L-ascorbic acid and 0.2 mM N,N,N,N-tetra methyl-p-phenylenediamine (TMPD). Complex I, III and IV inhibitors (rotenone, antimycin A and KCN, respectively) were added to a final concentration of 1 μM. […]

[3] = system: AMPK signaling; assay: Western blot of AMPK/mTOR signaling in HepG2 cells; assay type: cell-based, human
[4] = system: CCD-34Lu normal lung fibroblasts; assay: Cell viability by methylene blue colorimetric assay, normal cells CCD-34Lu; assay type: cell-based; conditions: Homo sapiens, Fibroblast; methylene blue assay (FIG. 1B); read-out: GI50, growth of normal cells CCD-34Lu
Experimental: (§1) Among the newly synthesized adamantyl compounds, it was evaluated how compound 21c (LW1564, Compound 21-3), FIG. 1A) affected proliferation suppression of various cancer cells. Human breast cancer cells (MCF7), human cervical cancer cells (HeLa), human colorectal cancer cells (HCT116, HCT15, LoVo, SW480, SW620 and WiDr), human fibrosarcoma cells (HT1080), human gastric cancer cells (NCI-N87, NUGC3 and SNU484), human liver cancer cells (HepG2, HT17, Huh7, SHJ1 and SK-Hep1), human lung cancer cells (A549 and H1299), human pancreatic cancer cells (AsPC1 and MIA-PaCa2) and normal lung fibroblasts (CCD-34Lu and WI-38) were purchased from the American Type Culture Collection (Manassas, Virginia, USA) or KRIBB Cell Line Bank (Daejeon). For cell culture, cells were cultured in a DMEM medium (Gibco, Grand Island, New York, USA) supplemented with 5% (v/v) fetal bovine serum (WelGENE, Daegu, Korea) and 100 U/ml penicillin and 100 μg/ml streptomycin (Gibco). Cells were maintained at 37° C. in a humidified incubator with 5% CO2, and hypoxia and a multi-gas incubator (Sanyo, Osaka, Japan) was adjusted to 1% O2, 94% N2 and 5% CO2. Cell viability was determined by methylene blue colorimetric assay as described in the “Chou, T. C. […] The dye was eluted with 0.1% HCl (v/v) and quantified at 600 nm on a Molecular Devices EMax (Molecular Devices, CA, USA). […]

[5] = system: ATP production; assay: ATP production and ATP content (ENLITEN ATP assay kit), HepG2 cells; assay type: cell-based, human
Experimental: Next, the effect of mitochondrial respiration on ATP production by oxidative phosphorylation was evaluated by comparing the amount of ATP produced by glycolysis decomposition and mitochondrial respiration in the presence of LW1564 (compound 21-3). ATP content was determined as described in “Chou, T. C. Theoretical basis, experimental design, and computerized simulation of synergism and antagonism in drug combination studies. Pharmacol. Rev. 58, 621-681 (2006).” After HepG2 cells were seeded and incubated with LW1564 (compound 21-3) for 6 hours, ATP content was measured using an ENLITEN® ATP assay kit (Promega, Madison, WI, USA) according to the manufacturer's instructions. Under normoxic conditions, HepG2 cells gained 47% of ATP by mitochondrial respiration and 53% by glycolysis decomposition. […] Compensatory upregulation of this degradation in response to suppression of oxidative phosphorylation occurred by AMPK activation, which was induced by a high AMP/ATP ratio.

[6] = system: WI-38 normal lung fibroblasts; assay: Cell viability by methylene blue colorimetric assay, normal cells WI-38; assay type: cell-based; conditions: Homo sapiens, methylene blue assay (FIG. 1B), read-out: GI50, growth of normal cells WI-38
Experimental: as §1

[7] = system: various cancer cells; assay: Cell viability by methylene blue colorimetric assay, various cancer cells; assay type: cell-based; conditions: Homo sapiens; range over the cancer cell lines, methylene blue assay (FIG. 1B); read-out: GI50, proliferation of various cancer cells
Experimental: as §1

**Q.** For `COc1cc2c(cc1OC)CN(C(=O)C13CC4CC(C1)CC(c1ccc(OCC(=O)N5CCN(Cc6ccc(C(F)(F)F)cc6)CC5)cc1)(C4)C3)CC2` [Compound 21c, 2-(4-(3-(6,7-Dimethoxy-1,2,3,4-tetrahydroisoquinoline-2-carbonyl)adamantan-1-yl)phenoxy)-1-(4-(4-(trifluoromethyl)benzyl)piperazin-1-yl) ethanone], which “weight of the tumors removed from the mice” value ([1]; 10 mg/kg intraperitoneally daily for 2 weeks (FIG. 6 middle)) is on record?
**A.** The value was “reduced”.

**Q.** And the “reduction in tumor size compared to the control group” value ([1]; 10 mg/kg intraperitoneally daily for 2 weeks, female nude mice (FIG. 6 left))?
**A.** Its value is 67%.

**Q.** And the “oxygen consumption rate in the presence of ascorbate/TMPD” value [2]?
**A.** Its value is “did not affect the oxygen consumption rate”.

**Q.** And the “phosphorylation of mTOR” value ([3]; concentration-dependent (FIG. 5A))?
**A.** The value was “suppressed phosphorylation of mTOR”.

**Q.** And the “phosphorylation of AMPK and ACC” value ([3]; western blot (FIG. 5A))?
**A.** The value was “promoted phosphorylation of AMPK and its downstream protein, Acetyl-CoA carboxylase (ACC)”.

**Q.** What about the GI50 [4] of the same compound?
**A.** Its GI50 is over 20 µM.

**Q.** What about the “glycolysis-derived ATP production” value ([5]; HepG2 cells (FIG. 3B)) of the same compound?
**A.** The value was “increased”.

**Q.** What about the “total ATP production, short period of time” value ([5]; HepG2 cells (FIG. 3B)) of the same compound?
**A.** Its value is “slightly decreased total ATP production”.

**Q.** What about the “intracellular total ATP levels, longer period” value ([5]; HepG2 cells (FIG. 3C)) of the same compound?
**A.** The value was “significantly decreased intracellular total ATP levels”.

**Q.** What about the “mitochondrial-derived ATP production” value ([5]; HepG2 cells, normoxic, untreated cells 47% of ATP by mitochondrial respiration (FIG. 3B)) of the same compound?
**A.** Its value is 16%.

**Q.** And the GI50 [6]?
**A.** Its GI50 is over 20 µM.

**Q.** What about the GI50 [7] of the same compound?
**A.** The GI50 was 0.4 to 4.6 µM.
